Source: patent publication US20180064665A1 (UNIVERSITY-INDUSTRY COOPERATION GROUP OF KYUNG HEE …, priority 2015, published 2018)
pIC50: −log10 of the molar value. Like-named read-outs stand apart in the source and are kept apart here. Blank lines part the entries; values can stand above or below the compound they belong to.

How the values were obtained:
Format in all cases: cell-based, mouse
[1] = tested on: PGE2 production; assay: Inhibitory activity on PGE2 production in LPS-treated Raw264.7 cells (PGE2 immunoassay); settings: LPS 1 μg/mL; for pIC50: mean of three measurements, read-out: Inhibition of PGE2 production IC50
Description: Raw264.7 cells (macrophage cell line from mouse) were obtained from Korean Cell Line Bank (KCLB) and cultured in Dulbecco's modified Eagle's medium (DMEM) containing 10% Fetal Bovine Serum (FBS), penicillin (100 units/mL), streptomycin sulfate (100 μg/mL) at 37° C. and 5% CO2 in humidified environment. RAW264.7 cells at 5×10^5 cells/mL were seeded at 1 mL/well in 24 wells using DMEM, left overnight, replaced with a fresh medium and then treated with a test compound of an appropriate concentration. The cells were incubated for 1 hr and then treated with LPS at 1 μg/mL and incubated for 24 hrs (or proper period). A supernatant was taken and diluted five times. 150 μL of an analysis buffer was added to Non Specific Binding (NSB) well, and 100 μL of an analysis buffer was added to zero point standard (B0) well. 100 μL of a standard sample was added to the other wells and 50 μL of PGE2 conjugate was added (excluding NSB). 50 μL of PGE2 antibody solution was added and wells were shaken for 2 hrs. Each well was suctioned and washed with a wash buffer five times. Each 200 μL of para-Nitrophenyl phosphate (pNPP) substrate was added to the all wells and the wells were stored in a bench at room temperature for 1 hr. 50 μL of stop solution was added and an absorbance was measured at 405 nm. The amount of PGE2 was quantified using the measured absorbance and a standard curve and compared to a group treated with LPS only to obtain a concentration inhibiting 50% (IC50). The results are shown in the following Table 1 and the presented values are means of three measurements.

[2] = Measurement of cell viability (MTT); settings: mouse, Raw264.7 macrophage cells, Raw264.7 cells, with LPS 1 μg/mL, mean of three measurements, read-out: Cell viability (IC50 for cell toxicity)
Description: (§1) Raw264.7 cells (macrophage cell line from mouse) were obtained from Korean Cell Line Bank (KCLB) and cultured in Dulbecco's modified Eagle's medium containing 10% FBS, penicillin (100 units/ml), streptomycin sulfate (100 μg/ml) at 37° C. and 5% CO2 in humidified environment.
(§2) Cells were collected by centrifugation and scraping, and seeded at 1×10^5 cells/well in a 96 well plate containing 100 μl of RPMI 1640 medium with 10% FBS. 3β, 4β-epoxy-8α-isobutyryloxyguaia-1(10), 11, (13)-diene-12.6α-olide was dissolved in dimethylsulfoxide (DMSO) solvent and the concentration of DMSO was not more than 0.1% in all experiments. Next day, test compounds and LPS (1 μg/mL) were added and the plate were cultured for 24 hrs. After washing cells once, 50 μl of the medium containing 5 mg/ml MTT but without FBS was added and cells were cultured at 37° C. for 4 hrs. And then, the medium was removed, formazan blue formed in the cells was dissolved in 100 μl of DMSO, and an absorbance was measured at 540 nm to obtain IC50 values for cell toxicity. […] The results are shown in the above Table 1 and the values are means of three measurements.

[3] = tested on: Raw264.7 cells; assay: Measurement of cell viability (MTT); settings: with LPS 1 μg/mL, 24 hrs, mean of three measurements, read-out: Cell viability (IC50 for cell toxicity)
Description: as §1, §2

Compound: O=C(Oc1ccccc1)N(NS(=O)(=O)c1ccccc1)c1ccccc1 [Comparative Example 1, N-phenyl-N′-(phenoxycarbonyl)-phenylsulfonhydrazide, reference compound]
pIC50 ([1]; Mus musculus): 5.24
inhibition at 10 µM ([1]; Mus musculus, compound at 10 μM): 84.4%
IC50 at 24 h [2]: > 10000 nM

Compound: Cc1ccc(OC(=O)NN(c2ccccc2)S(=O)(=O)c2ccc(C)cc2)cc1 [Example 2, N-phenyl-N′-(4-methylphenoxycarbonyl)-4-methylphenylsulfonhydrazide]
pIC50 [1]: 6.00
Inhibition of PGE2 production % ([1]; compound at 1 μM): 49.7 (1)^ %
pIC50 [3]: < 5.00

pIC50 [1]: 7.47
Compound: COc1ccccc1OC(=O)NN(c1ccccc1)S(=O)(=O)c1ccc(C)cc1 [Example 3, N-phenyl-N′-(2-methoxyphenoxycarbonyl)-4-methylphenylsulfonhydrazide]
Inhibition of PGE2 production % ([1]; compound at 0.1 μM): 91.9 (0.1) %
pIC50 [3]: < 7.00

Compound: COc1ccc(S(=O)(=O)N(NC(=O)Oc2ccc(OCc3ccccc3)cc2)c2ccccc2)cc1 [Example 4, N-phenyl-N′-(4-benzyloxyphenoxycarbonyl)-4-methoxyphenylsulfonhydrazide]
pIC50 [1]: 7.30
Inhibition of PGE2 production % ([1]; compound at 0.1 μM): 62.8 (0.1) %
pIC50 [3]: < 6.00

Compound: CCOc1ccc(OC(=O)NN(c2ccccc2)S(=O)(=O)c2ccc(OC)cc2)cc1 [Example 5, N-phenyl-N′-(4-ethoxyphenoxycarbonyl)-4-methoxyphenylsulfonhydrazide]
pIC50 [1]: 7.69
Inhibition of PGE2 production % ([1]; compound at 0.1 μM): 94.1 (0.1) %
pIC50 [3]: < 7.00

Compound: COc1ccc(S(=O)(=O)N(NC(=O)Oc2ccc(Oc3ccccc3)cc2)c2ccccc2)cc1 [Example 6, N-phenyl-N′-(4-phenoxyphenoxycarbonyl)-4-methoxyphenylsulfonhydrazide]
pIC50 [1]: 7.77
Inhibition of PGE2 production % ([1]; compound at 0.1 μM): 93.4 (0.1) %
pIC50 [3]: < 7.00

Compound: CCc1ccc(OC(=O)NN(c2ccccc2)S(=O)(=O)c2ccc(OC)cc2)cc1 [Example 7, N-phenyl-N′-(4-ethylphenoxycarbonyl)-4-methoxyphenylsulfonhydrazide]
pIC50 [1]: 7.55
Inhibition of PGE2 production % ([1]; compound at 0.1 μM): 90.9 (0.1) %
pIC50 [3]: < 7.00

pIC50 [1]: 7.49
Compound: Cc1ccc(S(=O)(=O)N(NC(=O)Oc2ccc(OCc3ccccc3)cc2)c2ccccc2)cc1 [Example 8, N-phenyl-N′-(4-benzyloxyphenoxycarbonyl)-4-methylphenylsulfonhydrazide]
Inhibition of PGE2 production % ([1]; compound at 0.1 μM): 66.6 (0.1) %
pIC50 [3]: < 7.00

Compound: COc1ccc(S(=O)(=O)N(NC(=O)Oc2ccc3c(c2)CCC3)c2ccccc2)cc1 [Example 9, N-phenyl-N′-(2,3-dihydro-1H-inden-5-oxycarbonyl)-4-methoxyphenylsulfonhydrazide]
pIC50 [1]: 8.35
Inhibition of PGE2 production % ([1]; compound at 0.01 μM): 79.5 (0.01) %
pIC50 [3]: < 7.00

Compound: O=C(NN(c1ccccc1)S(=O)(=O)c1ccc(Cl)cc1)Oc1ccccc1 [Example 10, N-phenyl-N′-phenoxycarbonyl-4-chlorophenylsulfonhydrazide]
pIC50 [1]: 8.27
Inhibition of PGE2 production % ([1]; compound at 0.01 μM): 81.8 (0.01) %
pIC50 [3]: < 5.00

Compound: COc1ccccc1OC(=O)NN(c1ccccc1)S(=O)(=O)c1ccc(Cl)cc1 [Example 11, N-phenyl-N′-(2-methoxyphenoxycarbonyl)-4-chlorophenylsulfonhydrazide]
pIC50 [1]: 8.45
Inhibition of PGE2 production % ([1]; compound at 0.01 μM): 85.9 (0.01) %
pIC50 [3]: < 5.00

Compound: CCc1ccc(OC(=O)NN(c2ccccc2)S(=O)(=O)c2ccc(Cl)cc2)cc1 [Example 12, N-phenyl-N′-(4-ethylphenoxycarbonyl)-4-chlorophenylsulfonhydrazide]
pIC50 [1]: 8.43
Inhibition of PGE2 production % ([1]; compound at 0.01 μM): 80.5 (0.01) %
pIC50 [3]: < 5.00

Compound: CCOc1ccc(OC(=O)NN(c2ccccc2)S(=O)(=O)c2ccc(Cl)cc2)cc1 [Example 13, N-phenyl-N′-(4-ethoxyphenoxycarbonyl)-4-chlorophenylsulfonhydrazide]
pIC50 [1]: 8.30
Inhibition of PGE2 production % ([1]; compound at 0.01 μM): 74.8 (0.01) %
pIC50 [3]: < 5.00

Compound: O=C(NN(c1ccccc1)S(=O)(=O)c1ccc(Cl)cc1)Oc1ccc(Oc2ccccc2)cc1 [Example 14, N-phenyl-N′-(4-phenoxyphenoxycarbonyl)-4-chlorophenylsulfonhydrazide]
pIC50 [1]: 8.29
Inhibition of PGE2 production % ([1]; compound at 0.01 μM): 67.8 (0.01) %
pIC50 [3]: < 5.00

Compound: O=C(NN(c1ccccc1)S(=O)(=O)c1ccc(Cl)cc1)Oc1ccc(OCc2ccccc2)cc1 [Example 15, N-phenyl-N′-(4-benzyloxyphenoxycarbonyl)-4-chlorophenylsulfonhydrazide]
pIC50 [1]: 8.47
Inhibition of PGE2 production % ([1]; compound at 0.01 μM): 84.5 (0.01) %
pIC50 [3]: < 5.00

Compound: CCCc1ccc(S(=O)(=O)N(NC(=O)Oc2ccc(Oc3ccccc3)cc2)c2ccccc2)cc1 [Example 20, N-phenyl-N′-(4-phenoxyphenoxycarbonyl)-4-n-propylphenylsulfonhydrazide]
pIC50 [1]: 6.87
Inhibition of PGE2 production % ([1]; compound at 0.1 μM): 45.4 (0.1) %
pIC50 [3]: < 5.00

Compound: O=C(NN(c1ccccc1)S(=O)(=O)c1ccc(C(F)(F)F)cc1)Oc1ccc(OCc2ccccc2)cc1 [Example 21, N-phenyl-N′-(4-benzyloxyphenoxycarbonyl)-4-trifluoromethylphenylsulfonhydrazide]
pIC50 [1]: 7.33
Inhibition of PGE2 production % ([1]; compound at 0.1 μM): 65.5 (0.1) %
pIC50 [3]: < 7.00

pIC50 [1]: 7.24
Compound: CC(C)(C)c1ccc(S(=O)(=O)N(NC(=O)Oc2ccc(OCc3ccccc3)cc2)c2ccccc2)cc1 [Example 22, N-phenyl-N′-(4-benzyloxyphenoxycarbonyl)-4-t-butylphenylsulfonhydrazide]
Inhibition of PGE2 production % ([1]; compound at 0.1 μM): 69.8 (0.1) %
pIC50 [3]: < 7.00

Compound: CC(C)(C)c1ccc(S(=O)(=O)N(NC(=O)Oc2ccc(Oc3ccccc3)cc2)c2ccccc2)cc1 [Example 23, N-phenyl-N′-(4-phenoxyphenoxycarbonyl)-4-t-butylphenylsulfonhydrazide]
pIC50 [1]: 7.00
Inhibition of PGE2 production % ([1]; compound at 0.1 μM): 67.9 (0.1) %
pIC50 [3]: < 6.00

Compound: CC(C)c1ccc(S(=O)(=O)N(NC(=O)Oc2ccc(Oc3ccccc3)cc2)c2ccccc2)cc1 [Example 24, N-phenyl-N′-(4-phenoxyphenoxycarbonyl)-4-i-propylphenylsulfonhydrazide]
pIC50 [1]: 6.89
Inhibition of PGE2 production % ([1]; compound at 0.1 μM): 65.4 (0.1) %
pIC50 [3]: < 6.00

Compound: Cc1ccc(S(=O)(=O)N(NC(=O)Oc2ccc3c(c2)CCC3)c2ccccc2)cc1 [Example 25, N-phenyl-N′-(2,3-dihydro-1H-inden-5-oxycarbonyl)-4-methylphenylsulfonhydrazide]
pIC50 [1]: 7.18
Inhibition of PGE2 production % ([1]; compound at 0.1 μM): 40.4 (0.1) %
pIC50 [3]: < 6.00

Compound: O=C(NN(c1ccccc1)S(=O)(=O)c1ccc(Cl)cc1)Oc1ccc2c(c1)CCC2 [Example 26, N-phenyl-N′-(2,3-dihydro-1H-inden-5-oxycarbonyl)-4-chlorophenylsulfonhydrazide]
pIC50 [1]: 7.15
Inhibition of PGE2 production % ([1]; compound at 0.1 μM): 45.8 (0.1) %
pIC50 [3]: < 6.00

pIC50 [1]: 7.25
Compound: O=C(NN(c1ccccc1)S(=O)(=O)c1ccc(C(F)(F)F)cc1)Oc1ccc2c(c1)CCC2 [Example 27, N-phenyl-N′-(2,3-dihydro-1H-inden-5-oxycarbonyl)-4-trifluorophenylsulfonhydrazide]
Inhibition of PGE2 production % ([1]; compound at 0.1 μM): 51.1 (0.1) %
pIC50 [3]: < 6.00

Compound: Cc1cc(C)c(S(=O)(=O)N(Nc2ccccc2)C(=O)Oc2ccc3c(c2)CCC3)c(C)c1 [Example 28]
pIC50 ([1]; Mus musculus): 7.23
inhibition at 0.1 µM ([1]; Mus musculus, compound at 0.1 μM): 57.2%
IC50 at 24 h [2]: > 1000 nM

Compound: N-phenyl-N′-(4-benzyloxyphenoxycarbonyl)-2-mesitylenesulfonhydrazide [Example 17]
pIC50 [1]: 7.09
Inhibition of PGE2 production % ([1]; compound at 0.1 μM): 60.0 (0.1) %
pIC50 [3]: < 6.00

Compound: N-phenyl-N′-(4-phenoxyphenoxycarbonyl)-2-mesitylenesulfonhydrazide [Example 16]
pIC50 [1]: 6.75
Inhibition of PGE2 production % ([1]; compound at 0.1 μM): 39.8 (0.1) %
pIC50 [3]: < 6.00
